One assay deals with IRAK4 enzyme (Homo sapiens (Human), UniProt Q9NWZ3). Nature of the assay: IRAK4 Biochemical Assay (TR-FRET/HTRF). The settings on record: 0.75 nM IRAK4, 500 μM ATP, STK1 peptide. In short, it runs like this:
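Compound was preincubated 15 min with 0.75 nM IRAK4 and 2 µM STK1 peptide. Reaction ran 120 min at room temperature with 500 µM ATP in HEPES pH 7.0 buffer (5 mM MgCl2, 1 mM DTT), then HTRF detection of phosphopeptide as the 665/615 nm ratio. % inhibition is relative to no-inhibitor and saturating-staurosporine controls.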
On the technique in general: In TR-FRET formats the signal depends on donor and acceptor labels being close together.

The subject of the next assay is TNFα. Briefly: IRAK4 Monocyte TNFα Cell Based Assay. The settings on record: cryopreserved human monocytes, LPS 50 pg/ml stimulation, TNFα by TR-FRET. In short, it runs like this: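 Cells (5,000/well) preincubated with compound 1 h at 37° C (0.1% DMSO), then stimulated 4 h with 50 pg/ml LPS. Supernatant TNFα quantified by TR-FRET (665/615 nm ratio). Percent of control scaled between unstimulated (0%) and LPS-stimulated (100%) wells.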

Sequence of IRAK4 enzyme (Q9NWZ3 whole entry): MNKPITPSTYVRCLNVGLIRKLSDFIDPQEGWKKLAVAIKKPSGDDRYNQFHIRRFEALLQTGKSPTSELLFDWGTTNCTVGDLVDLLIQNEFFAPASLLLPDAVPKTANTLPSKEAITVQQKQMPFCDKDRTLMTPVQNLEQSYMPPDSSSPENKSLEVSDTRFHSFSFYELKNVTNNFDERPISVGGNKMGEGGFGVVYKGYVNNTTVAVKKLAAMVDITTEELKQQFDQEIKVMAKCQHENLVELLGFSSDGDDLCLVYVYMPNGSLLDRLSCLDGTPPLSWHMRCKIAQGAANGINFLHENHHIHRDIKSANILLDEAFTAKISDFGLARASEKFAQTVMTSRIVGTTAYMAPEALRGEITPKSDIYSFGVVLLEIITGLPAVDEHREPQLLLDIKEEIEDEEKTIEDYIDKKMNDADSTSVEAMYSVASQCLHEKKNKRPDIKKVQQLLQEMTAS

Broadly, the IC50 is the point on the concentration scale where inhibition reaches its midpoint. A low value points to higher potency. In general, EC50 refers to the concentration needed to bring the measured effect to its halfway point. On IRAK4 enzyme, `COC(=O)NC[C@H]1C[C@H](Nc2cc(-c3ccc4cc(C#N)cnn34)ncc2-c2cn(CC(F)F)nn2)C1` [Compound 32, methyl (((1r,3r)-3-((2-(3-cyanopyrrolo[1,2-b]pyridazin-7-yl)-5-(1-(2,2-difluoroethyl)-1H-1,2,3-triazol-4-yl)pyridin-4-yl)amino)cyclobutyl)methyl)carbamate] gave an IC50 of less than 1 nM. Also, the concentration giving a half-maximal response (EC50) with TNFα is 38 nM.

Consider `CC(=O)N[C@H]1CC[C@H](c2cn(-c3cnc(-c4ccc5cc(C#N)cnn45)cc3NC(C)C)nn2)CC1` [Compound 61, N-((1r,4r)-4-(1-(6-(3-cyanopyrrolo[1,2-b]pyridazin-7-yl)-4-(isopropylamino)pyridin-3-yl)-1H-1,2,3-triazol-4-yl)cyclohexyl)acetamide], for which the midpoint of inhibition at IRAK4 enzyme, the IC50, lay at 2 nM. In the assay on TNFα, this molecule yielded an EC50 of 75 nM.

Turning to `CNC(=O)Cn1cc(-c2cnc(-c3ccc4cc(C#N)cnn34)cc2NC(C)C)nn1` [Compound 45, 2-(4-(6-(3-cyanopyrrolo[1,2-b]pyridazin-7-yl)-4-(isopropylamino)pyridin-3-yl)-1H-1,2,3-triazol-1-yl)-N-methylacetamide], the IC50 against IRAK4 enzyme was 1 nM. Also, a half-maximal effect in the assay on TNFα (Monocyte) (EC50) was put at 85 nM.

As to `CC(C)Nc1cc(-c2ccc3cc(C#N)cnn23)ncc1-c1cn(C23CC(C2)C3)nn1` [Compound 57, 7-(5-(1-(bicyclo[1.1.1]pentan-1-yl)-1H-1,2,3-triazol-4-yl)-4-(isopropylamino)pyridin-2-yl)pyrrolo[1,2-b]pyridazine-3-carbonitrile], on IRAK4 enzyme, the half-inhibitory concentration (IC50) is 14 nM. In the assay on TNFα (Monocyte), the concentration for a half-maximal effect (EC50) was 1120 nM.

In the case of `COC(=O)NC[C@H]1C[C@H](Nc2cc(-c3ccc4cc(C#N)cnn34)ncc2-c2cn(C(F)F)nn2)C1` [Compound 4, methyl (((1r,3r)-3-((2-(3-cyanopyrrolo[1,2-b]pyridazin-7-yl)-5-(1-(difluoromethyl)-1H-1,2,3-triazol-4-yl)pyridin-4-yl)amino)cyclobutyl)methyl)carbamate], the IC50 against IRAK4 enzyme was determined as 2 nM. The half-maximal effective concentration (EC50) in the assay with TNFα worked out at 130 nM.

As for `COC(=O)NC[C@H]1C[C@H](Nc2cc(-c3ccc4cc(C#N)cnn34)ncc2-c2nnn(C[C@@H](F)C(C)(C)O)c2F)C1` [Compound 5, methyl (((1R,3r)-3-((2-(3-cyanopyrrolo[1,2-b]pyridazin-7-yl)-5-(5-fluoro-1-((R)-2-fluoro-3-hydroxy-3-methylbutyl)-1H-1,2,3-triazol-4-yl)pyridin-4-yl)amino)cyclobutyl)methyl)carbamate], at IRAK4 enzyme, the IC50 is 3 nM. In addition, in the assay on TNFα, the EC50 amounted to 145 nM.

Molecule “7-(4-(isopropylamino)-5-(1-propyl-1H-1,2,3-triazol-4-yl)pyridin-2-yl)pyrrolo[1,2-b]pyridazine-3-carbonitrile [Compound 54]” gave an IC50 on IRAK4 enzyme of 1 nM. The molecule further displayed an EC50 with TNFα of 90 nM.

In the case of `COC(=O)NC[C@H]1C[C@H](Nc2cc(-c3ccc4cc(C#N)cnn34)ncc2-c2cn([C@H]3CC[C@H](NC(=O)C4CC4)CC3)nn2)C1` [Compound 19, methyl (((1R,3r)-3-((2-(3-cyanopyrrolo[1,2-b]pyridazin-7-yl)-5-(1-((1r,4R)-4-(cyclopropanecarboxamido)cyclohexyl)-1H-1,2,3-triazol-4-yl)pyridin-4-yl)amino)cyclobutyl)methyl)carbamate], on IRAK4 enzyme, the half-inhibitory concentration (IC50) is less than 1 nM. Besides, the midpoint of the response with TNFα, the EC50, lay at 9 nM.

As for `CC(C)Nc1cc(-c2ccc3cc(C#N)cnn23)ncc1-c1cn(C2CCN(S(C)(=O)=O)CC2)nn1` [Compound 41, 7-(4-(isopropylamino)-5-(1-(1-(methylsulfonyl)piperidin-4-yl)-1H-1,2,3-triazol-4-yl)pyridin-2-yl)pyrrolo[1,2-b]pyridazine-3-carbonitrile], at IRAK4 enzyme, inhibition was half-maximal at 1 nM (IC50). The molecule also gave a half-maximal effective concentration (EC50) in the assay on TNFα (Monocyte) of 70 nM.

`CC(C)(O)[C@H](F)Cn1cc(-c2cnc(-c3ccc4cc(C#N)cnn34)cc2N[C@H]2CCC[C@@H](O)C2)nn1` [Compound 13, 7-(5-(1-((R)-2-fluoro-3-hydroxy-3-methylbutyl)-1H-1,2,3-triazol-4-yl)-4-(((1S,3R)-3-hydroxycyclohexyl)amino)pyridin-2-yl)pyrrolo[1,2-b]pyridazine-3-carbonitrile] yielded an IC50 at IRAK4 enzyme of less than 1 nM. Moreover, in the assay with TNFα (Monocyte), the EC50 was 5 nM.

Source of the values: US11053250B2, “Pyrrolo[1,2-b]pyridazine derivatives” (Gilead Sciences, Inc., priority 2018, dated 2021).
